Converted amounts (≈) assume the structure as drawn. The source made the active and inactive calls. No cut-off for these calls is given here.
What was measured:
[1] = biological target: T1, Bile acid receptor (Homo sapiens) (UniProt Q96RI1); test: Antagonist activity at human FXR transfected in HepG2 cells assessed as inhibition of CDCA-induced receptor transactivation at 10 uM by luciferase reporter assay relative to control; format: cell-based; set-up: scale not given: the % may be the effect or the level left
T1 sequence (whole entry): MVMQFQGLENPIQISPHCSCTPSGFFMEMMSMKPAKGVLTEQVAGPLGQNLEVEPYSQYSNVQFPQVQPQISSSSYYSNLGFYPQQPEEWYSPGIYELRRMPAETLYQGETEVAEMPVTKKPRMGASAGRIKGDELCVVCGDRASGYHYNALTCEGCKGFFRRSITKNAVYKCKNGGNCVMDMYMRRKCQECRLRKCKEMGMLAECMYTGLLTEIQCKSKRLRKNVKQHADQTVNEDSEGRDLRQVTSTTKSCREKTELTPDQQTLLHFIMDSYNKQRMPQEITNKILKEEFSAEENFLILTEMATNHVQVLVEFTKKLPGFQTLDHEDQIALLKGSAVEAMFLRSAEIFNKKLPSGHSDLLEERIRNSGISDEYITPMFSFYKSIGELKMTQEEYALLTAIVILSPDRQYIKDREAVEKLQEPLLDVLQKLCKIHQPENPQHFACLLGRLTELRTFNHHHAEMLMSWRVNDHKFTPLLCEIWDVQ

[2] = Lipophilicity, log D of the compound by LC-MS/MS analysis; format: physicochemical; details: octanol/water
[3] = biological target: T1, Bile acid receptor (Homo sapiens); test: Antagonist activity at human FXR in HepG2 cells assessed as reversal of CDCA-induced increase in PEPCK mRNA expression level at 0.1 to 1 uM dosed after 24 hrs starvation followed by CDCA addition and measured after 18 hrs by RT-PCR analysis
[4] = biological target: T2, Nuclear receptor subfamily 1 group I member 2 (Homo sapiens, UniProt O75469); test: Agonist activity at human PXR transfected in HepG2 at 10 uM by luciferase reporter assay; format: cell-based; details: hepg2, 10 µM
T2 sequence (O75469 whole entry): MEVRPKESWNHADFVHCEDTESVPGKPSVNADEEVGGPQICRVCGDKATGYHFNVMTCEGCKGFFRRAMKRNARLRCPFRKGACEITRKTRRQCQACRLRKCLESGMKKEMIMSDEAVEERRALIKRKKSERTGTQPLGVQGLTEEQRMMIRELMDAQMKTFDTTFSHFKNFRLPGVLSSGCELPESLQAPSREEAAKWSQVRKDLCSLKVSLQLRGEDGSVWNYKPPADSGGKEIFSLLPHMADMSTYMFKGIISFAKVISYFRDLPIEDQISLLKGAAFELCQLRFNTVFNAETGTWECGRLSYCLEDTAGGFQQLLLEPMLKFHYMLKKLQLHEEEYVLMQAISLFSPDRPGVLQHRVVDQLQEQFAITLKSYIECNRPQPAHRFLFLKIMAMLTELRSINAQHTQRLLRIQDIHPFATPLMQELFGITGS

[5] = biological target: T3, Peroxisome proliferator-activated receptor gamma (Homo sapiens) (UniProt P37231); test: Antagonist activity at human PPARgamma transfected in HepG2 at 5 uM in presence of PPARgamma agonist rosiglitazone by luciferase reporter assay; format: cell-based
T3 sequence (whole entry): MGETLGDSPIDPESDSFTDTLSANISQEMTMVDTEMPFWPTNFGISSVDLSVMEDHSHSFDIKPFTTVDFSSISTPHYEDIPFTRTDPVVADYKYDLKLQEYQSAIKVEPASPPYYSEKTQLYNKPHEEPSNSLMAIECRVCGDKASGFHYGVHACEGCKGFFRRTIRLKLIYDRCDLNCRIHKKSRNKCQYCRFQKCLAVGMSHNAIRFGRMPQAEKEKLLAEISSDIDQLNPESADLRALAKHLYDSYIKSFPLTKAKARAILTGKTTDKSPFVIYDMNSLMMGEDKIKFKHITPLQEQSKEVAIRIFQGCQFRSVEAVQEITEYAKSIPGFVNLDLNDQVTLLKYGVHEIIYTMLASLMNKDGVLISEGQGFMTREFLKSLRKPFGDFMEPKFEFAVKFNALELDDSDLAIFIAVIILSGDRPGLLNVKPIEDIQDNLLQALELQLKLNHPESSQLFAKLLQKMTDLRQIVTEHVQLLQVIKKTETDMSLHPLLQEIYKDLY

[6] = biological target: T2, Nuclear receptor subfamily 1 group I member 2; test: Antagonist activity at human PXR transfected in HepG2 at 5 uM in presence of PXR agonist rifaximin by luciferase reporter assay; format: cell-based; details: hepg2, 5 µM
Bile acid receptor = biological target: T4, Bile acid receptor (Homo sapiens, UniProt Q96RI1); test: Antagonist activity at human FXR transfected in HepG2 cells assessed as inhibition of CDCA-induced receptor transactivation by luciferase reporter assay; format: cell-based
T4 sequence (Q96RI1 whole entry): T1 sequence (whole entry)

[7] = biological target: T1, Bile acid receptor (Homo sapiens); test: Antagonist activity at human FXR in HepG2 cells assessed as reversal of CDCA-induced increase in […] mRNA expression level at 0.1 to 1 uM dosed after 24 hrs starvation followed by CDCA addition and measured after 18 hrs by RT-PCR analysis
[8] = Aqueous solubility of compound in pH 7.4 PBS buffer incubated for 24 hrs under gently shaking condition by LC-MS/MS analysis; format: physicochemical

Activity [1]: 80%
logD [2]: 0.34
Activity [3]: Active
Activity [4]: Not Active
Activity [5]: inactive
Activity [6]: Not Active
IC50 (Bile acid receptor): 580 nM
Activity [7]: Active
solubility at 24 h [8]: 200 µM (≈ 55.9 µg/mL)
SMILES: c1ccc2cc(-c3noc(C4CCNCC4)n3)ccc2c1

From ChEMBL document CHEMBL4433214, “Investigation around the Oxadiazole Core in the Discovery of a New Chemotype of Potent and Selective FXR Antagonists” (ACS Med Chem Lett, 2019)
